Results taken from ChEMBL document CHEMBL4393697, “Lipophilic efficient phenylthiazoles with potent undecaprenyl pyrophosphatase inhibitory activity” (Eur J Med Chem, 2019).
Values after ≈ are worked out from the molar mass of the structure shown. Active and inactive are the calls of the source. The calls are words filed in the database; no cut-off is given here.

Key:
[1] = test system: Streptococcus pneumoniae; assay: Antibacterial activity against Methicillin resistant Streptococcus pneumoniae ATCC 700677 assessed as reduction in bacterial cell growth incubated for 18 to 20 hrs by broth microdilution method; type: functional
[2] = test system: Staphylococcus aureus; assay: Bactericidal activity against vancomycin resistant Staphylococcus aureus VRS10 assessed as reduction in bacterial cell growth incubated for 18 to 20 hrs followed by re-plating on tryptic soy agar plates at 37 degC for 18 hrs by broth microdilution assay; type: functional
[3] = test system: Staphylococcus aureus; assay: Bactericidal activity against methicillin-resistant Staphylococcus aureus USA300 assessed as reduction in bacterial cell growth incubated for 18 to 20 hrs followed by re-plating on tryptic soy agar plates at 37 degC for 18 hrs by broth microdilution assay; type: functional
[4] = test system: Streptococcus pneumoniae; assay: Bactericidal activity against Cephalosporin resistant Streptococcus pneumoniae ATCC 51916 assessed as reduction in bacterial cell growth incubated for 18 to 20 hrs followed by re-plating on tryptic soy agar plates at 37 degC for 18 hrs by broth microdilution assay; type: functional
[5] = test system: Acinetobacter baumannii; assay: Antibacterial activity against Acinetobacter baumannii ATCC 19606 assessed as reduction in bacterial cell growth incubated for 18 to 20 hrs by broth microdilution method; type: functional
[6] = test system: Staphylococcus aureus; assay: Bactericidal activity against Staphylococcus aureus ATCC 6538 assessed as reduction in bacterial cell growth incubated for 18 to 20 hrs followed by re-plating on tryptic soy agar plates at 37 degC for 18 hrs by broth microdilution assay; type: functional
[7] = test system: Escherichia coli; assay: BActericidal activity against Escherichia coli BW25113 assessed as reduction in bacterial cell growth incubated for 18 to 20 hrs followed by re-plating on tryptic soy agar plates at 37 degC for 18 hrs by broth microdilution assay; type: functional
[8] = test system: Staphylococcus epidermidis; assay: Bactericidal activity against methicillin resistant Staphylococcus epidermidis NRS101 assessed as reduction in bacterial cell growth incubated for 18 to 20 hrs followed by re-plating on tryptic soy agar plates at 37 degC for 18 hrs by broth microdilution assay; type: functional
[9] = test system: Enterococcus faecalis; assay: Antibacterial activity against vancomycin resistant Enterococcus faecalis ATCC 51299 assessed as reduction in bacterial cell growth incubated for 18 to 20 hrs by broth microdilution method; type: functional
[10] = test system: Staphylococcus aureus; assay: Bactericidal activity against vancomycin resistant Staphylococcus aureus VRS11a assessed as reduction in bacterial cell growth incubated for 18 to 20 hrs followed by re-plating on tryptic soy agar plates at 37 degC for 18 hrs by broth microdilution assay; type: functional
[11] = test system: Streptococcus pneumoniae; assay: Bactericidal activity against Methicillin resistant Streptococcus pneumoniae ATCC 700677 assessed as reduction in bacterial cell growth incubated for 18 to 20 hrs followed by re-plating on tryptic soy agar plates at 37 degC for 18 hrs by broth microdilution assay; type: functional
[12] = test system: Staphylococcus aureus; assay: Antibacterial activity against Staphylococcus aureus NRS107 assessed as reduction in bacterial cell growth incubated for 18 to 20 hrs by broth microdilution method; type: functional
[13] = test system: Staphylococcus aureus; assay: Antibacterial activity against vancomycin resistant Staphylococcus aureus VRS10 assessed as reduction in bacterial cell growth incubated for 18 to 20 hrs by broth microdilution method; type: functional
[14] = test system: Enterococcus faecium; assay: Bactericidal activity against vancomycin resistant Enterococcus faecium ATCC 700221 assessed as reduction in bacterial cell growth incubated for 18 to 20 hrs followed by re-plating on tryptic soy agar plates at 37 degC for 18 hrs by broth microdilution assay; type: functional
[15] = test system: Staphylococcus aureus; assay: Antibacterial activity against intracellular methicillin resistant Staphylococcus aureus USA400 infected in mouse J774 cells assessed as log10 reduction of viable bacterial cells incubated for 24 hrs followed by re-plating on tryptic soy agar plates at 37 degC for 18 to 22 hrs by broth microdilution assay; type: functional
[16] = test system: Listeria monocytogenes; assay: Bactericidal activity against Listeria monocytogenes ATCC 19111 assessed as reduction in bacterial cell growth incubated for 18 to 20 hrs followed by re-plating on tryptic soy agar plates at 37 degC for 18 hrs by broth microdilution assay; type: functional
[17] = test system: Staphylococcus aureus; assay: Bactericidal activity against vancomycin resistant Staphylococcus aureus VRS12 assessed as reduction in bacterial cell growth incubated for 18 to 20 hrs followed by re-plating on tryptic soy agar plates at 37 degC for 18 hrs by broth microdilution assay; type: functional
[18] = test system: Staphylococcus aureus; assay: Bactericidal activity against Staphylococcus aureus NRS107 assessed as reduction in bacterial cell growth incubated for 18 to 20 hrs followed by re-plating on tryptic soy agar plates at 37 degC for 18 hrs by broth microdilution assay; type: functional
[19] = test system: Pseudomonas aeruginosa; assay: Antibacterial activity against Pseudomonas aeruginosa ATCC 15442 assessed as reduction in bacterial cell growth incubated for 18 to 20 hrs by broth microdilution method; type: functional
[20] = test system: Staphylococcus aureus; assay: Antibacterial activity against methicillin-resistant Staphylococcus aureus USA300 assessed as reduction in bacterial cell growth incubated for 18 to 20 hrs by broth microdilution method; type: functional
[21] = test system: Staphylococcus aureus; assay: Antibacterial activity against methicillin resistant Staphylococcus aureus USA400 assessed as reduction in bacterial cell growth incubated for 18 to 20 hrs by broth microdilution method; type: functional
[22] = test system: Staphylococcus aureus; assay: Antibacterial activity against vancomycin resistant Staphylococcus aureus VRS12 assessed as reduction in bacterial cell growth incubated for 18 to 20 hrs by broth microdilution method; type: functional
[23] = test system: Enterococcus faecium; assay: Antibacterial activity against vancomycin resistant Enterococcus faecium ATCC 700221 assessed as reduction in bacterial cell growth incubated for 18 to 20 hrs by broth microdilution method; type: functional
[24] = test system: Escherichia coli; assay: Bactericidal activity against Escherichia coli JW55031 harboring deltatolC mutant assessed as reduction in bacterial cell growth incubated for 18 to 20 hrs followed by re-plating on tryptic soy agar plates at 37 degC for 18 hrs by broth microdilution assay; type: functional
[25] = test system: Klebsiella pneumoniae; assay: Bactericidal activity against Klebsiella pneumoniae BAA-1706 assessed as reduction in bacterial cell growth incubated for 18 to 20 hrs followed by re-plating on tryptic soy agar plates at 37 degC for 18 hrs by broth microdilution assay; type: functional
[26] = test system: Klebsiella pneumoniae; assay: Antibacterial activity against Klebsiella pneumoniae BAA-1706 assessed as reduction in bacterial cell growth incubated for 18 to 20 hrs by broth microdilution method; type: functional
[27] = test system: Acinetobacter baumannii; assay: Bactericidal activity against Acinetobacter baumannii ATCC 19606 assessed as reduction in bacterial cell growth incubated for 18 to 20 hrs followed by re-plating on tryptic soy agar plates at 37 degC for 18 hrs by broth microdilution assay; type: functional
[28] = test system: Staphylococcus aureus; assay: Antibacterial activity against Staphylococcus aureus ATCC 6538 assessed as reduction in bacterial cell growth incubated for 18 to 20 hrs by broth microdilution method; type: functional
[29] = test system: Enterococcus faecalis; assay: Bactericidal activity against vancomycin resistant Enterococcus faecalis ATCC 51299 assessed as reduction in bacterial cell growth incubated for 18 to 20 hrs followed by re-plating on tryptic soy agar plates at 37 degC for 18 hrs by broth microdilution assay; type: functional
[30] = test system: Staphylococcus aureus; assay: Bactericidal activity against methicillin resistant Staphylococcus aureus NRS119 assessed as reduction in bacterial cell growth incubated for 18 to 20 hrs followed by re-plating on tryptic soy agar plates at 37 degC for 18 hrs by broth microdilution assay; type: functional
[31] = test system: Staphylococcus aureus; assay: Antibacterial activity against methicillin resistant Staphylococcus aureus NRS119 assessed as reduction in bacterial cell growth incubated for 18 to 20 hrs by broth microdilution method; type: functional
[32] = test system: Pseudomonas aeruginosa; assay: Bactericidal activity against Pseudomonas aeruginosa ATCC 15442 assessed as reduction in bacterial cell growth incubated for 18 to 20 hrs followed by re-plating on tryptic soy agar plates at 37 degC for 18 hrs by broth microdilution assay; type: functional
[33] = Solubility of compound in PBS after 2 hrs by turbidity based absorbance analysis; type: physicochemical

SMILES | MIC [1] [µg/mL] | MBC [2] [µg/mL] | MBC [3] [µg/mL] | MBC [4] [µg/mL] | MIC [5] [µg/mL] | MBC [6] [µg/mL] | MBC [7] [µg/mL] | MBC [8] [µg/mL] | MIC [9] [µg/mL] | MBC [10] [µg/mL] | MBC [11] [µg/mL] | MIC [12] [µg/mL] | MIC [13] [µg/mL] | MBC [14] [µg/mL] | MBC [16] [µg/mL] | MBC [17] [µg/mL] | MBC [18] [µg/mL] | MIC [19] [µg/mL] | MIC [20] [µg/mL] | MIC [21] [µg/mL] | other results
C/C(=N\NC(=N)N)c1sc(-c2ccc(C#Cc3ccc(C)s3)cc2)nc1C | 8 (≈ 20.3 µM) | 8 (≈ 20.3 µM) | 16 (≈ 40.7 µM) | 16 (≈ 40.7 µM) | 32 (≈ 81.3 µM) | 4 (≈ 10.2 µM) | > 64 | 4 (≈ 10.2 µM) | 16 (≈ 40.7 µM) | 8 (≈ 20.3 µM) | 32 (≈ 81.3 µM) | 4 (≈ 10.2 µM) | 4 (≈ 10.2 µM) | 4 (≈ 10.2 µM) | 32 (≈ 81.3 µM) | 16 (≈ 40.7 µM) | 4 (≈ 10.2 µM) | > 64 | 8 (≈ 20.3 µM) | 2 (≈ 5.08 µM) | Activity [15]: 0.21 log10CFU; MIC [22]: 8 µg/mL (≈ 20.3 µM); MIC [23]: 2 µg/mL (≈ 5.08 µM); MBC [24]: 64 µg/mL (≈ 163 µM); MBC [25]: 64 µg/mL (≈ 163 µM); MIC [26]: 32 µg/mL (≈ 81.3 µM); MBC [27]: 64 µg/mL (≈ 163 µM); MIC [28]: 4 µg/mL (≈ 10.2 µM); MBC [29]: 64 µg/mL (≈ 163 µM); MBC [30]: 4 µg/mL (≈ 10.2 µM); MIC [31]: 4 µg/mL (≈ 10.2 µM); MBC [32]: > 64 µg/mL; solubility kinetic at 2 h [33]: 12 µM (≈ 4.72 µg/mL)
C/C(=N\NC(=N)N)c1sc(-c2ccc(C#Cc3ccc(N)cc3)cc2)nc1C | 16 (≈ 41.2 µM) | 32 (≈ 82.4 µM) | 16 (≈ 41.2 µM) | 32 (≈ 82.4 µM) | 64 (≈ 165 µM) | 4 (≈ 10.3 µM) | > 64 | 2 (≈ 5.15 µM) | > 64 | 32 (≈ 82.4 µM) | 32 (≈ 82.4 µM) | 4 (≈ 10.3 µM) | 16 (≈ 41.2 µM) | 16 (≈ 41.2 µM) | > 64 | 32 (≈ 82.4 µM) | 8 (≈ 20.6 µM) | > 64 | 4 (≈ 10.3 µM) | 4 (≈ 10.3 µM) | Activity call [15]: inactive; MIC [22]: 16 µg/mL (≈ 41.2 µM); MIC [23]: 4 µg/mL (≈ 10.3 µM); MBC [24]: 16 µg/mL (≈ 41.2 µM); MBC [25]: > 64 µg/mL; MIC [26]: > 64 µg/mL; MBC [27]: > 64 µg/mL; MIC [28]: 2 µg/mL (≈ 5.15 µM); MBC [29]: > 64 µg/mL; MBC [30]: 16 µg/mL (≈ 41.2 µM); MIC [31]: 8 µg/mL (≈ 20.6 µM); MBC [32]: > 64 µg/mL; solubility kinetic at 2 h [33]: 105 µM (≈ 40.8 µg/mL)
